According to EP0555116B1, “Compositions based on antiseptics and their applications” (HUTCHINSON, priority 1992, dated 1993):
Several values for one entry are separate records, joined by “and”; a condition that tells them apart may be missing. Equal values may be shown once.

Tests used:
[1] = test system: Herpès virus Hominis type 1, souche Bey (HSV1); experiment: Immediate virucidal action on HSV1, plaque count on Vero cells; type: cell-based; conditions: Bardac® 0,02 %; 3 boîtes de culture; J4
Method: Il s'agit d'une souche d'Herpès virus Hominis type 1, souche Bey (HSV1), elle est entretenue sur cellules fibroblastiques humaines ou sur cellules KB et a subi un nombre de passages importants, sur l'un ou l'autre type de cellules.
On utilise un lot viral congelé à -80°C après obtention d'un effet cytopathique ayant atteint au moins 80 % des cellules, sans une centrifugation préalable, qui aurait débarrassé l'inoculum de la majorité des débris cellulaires; en effet, il apparaît que l'infectivité du virus disparaît très rapidement lorsqu'il est extracellulaire, et, en conséquence, on est plus près de la réalité de l'infection in vivo lorsqu'on utilise un lot viral dans lequel des virions peuvent encore se trouver dans des débris cellulaires.
Ce lot a été titré, après répartition en aliquots de 0,5 ml, conservés à -80°C, sur cellules fibroblastiques humaines : • . par dilution de 10 en 10 et inoculations de 8 tubes de cultures par dilution : 10^6/ml; • . par inoculation de cultures en boîtes de Pétri (35 mm) et adjonction de sérum anti-HSV1 dans le surnageant pour neutraliser les virions qui pourraient être libérés dans le milieu liquide, permettant ainsi de compter des plages : 100 à 150 unités formant plages par boîte inoculée avec 0,5 ml d'une solution virale diluée à 10^-4. […]

virus HBV = experiment: In vivo protection test in ducks (I.V.), inoculum 2.10^7 vge/canard; conditions: Bardac® 0,1 %, voie I.V.
Excerpt: II - Essais in vivo chez le canard (voie I.V.).
• Bardac® 0,02 % (dose 100 fois inférieure à celle qui est efficace in vitro pour le Bardac® seul) - CHG 0,025 % contre un inoculum à 2.10^7 vge/canard protège 3/3 canards (figure 2). • Bardac® 0,1 % (dose 5 fois plus forte que dans une composition conforme à l'invention pour obtenir une protection équivalente) contre un inoculum à 2.10^7 vge/canard (vge = viral genoma equivalent) protège 4/4 canards (figure 3).
La figure 1 correspond à un témoin d'infection : 4/4 canards inoculés avec 2.10^7 vge développent une virémie dont le pic se situe entre 5 et 10 jours.

[2] = test system: antigène du virus de l'hépatite B (AgHBs); experiment: In vitro degradation of hepatitis B virus antigen (AgHBs): virucide + patient human serum (1/1000); type: biochemical; conditions: Bardac® 0,2 %
Excerpt: I - Action sur la dégradation in vitro de l'antigène du virus de l'hépatite B (AgHBs) du virus de l'hépatite B : virucide + sérum humain de malade (1/1000ème).

CCCCCCCCCC[N+](C)(C)CCCCCCCCCC [Bardac®, chlorure de didécyldiméthylammonium]
Nombre d'unités formant plage par millilitre de virus dilué à 10^-4 [1]: 30/125/45 and 26/17/20 | canards protégés (virus HBV): 4/4 | AgHBs résiduel (ratio) [2]: 1,35
